Assay results published in ChEMBL document CHEMBL1139211, “E/Z-rubrolide O, an anti-inflammatory halogenated furanone from the New Zealand ascidian Synoicum n. sp” (J Nat Prod, 2007).
Activity calls are given as the source filed them. The rule behind the calls is not given here.

Experiments:
Neutrophil [1] = test: Inhibition of superoxide production in human neutrophils; type: functional, cell-based
[2] = Viability of human neutrophils by trypan blue assay at 500 uM; type: functional, Neutrophil
HL-60 = test: Antiproliferative activity against HL60 cells by MTT assay; type: functional, cell-based; settings: Homo sapiens
Neutrophil [3] = test: Inhibition of PMA-induced adhesion of neutrophils; type: functional, cell-based; settings: Homo sapiens

SMILES: O=C1O/C(=C\c2ccc(O)c(Br)c2)C(c2cc(Br)c(O)c(Br)c2)=C1Cl [RUBROLIDE O]
- IC50 (Neutrophil [1]): 35 µM
- Activity [2]: 87%
- IC50 (HL-60): 33 µM
- Activity (Neutrophil [3]): Active
